From patent US20150044201A1, “CYCLON EXPRESSION FOR THE IDENTIFICATION AND CONTROL OF CANCER CELLS” (UNIVERSITE JOSEPH FOURIER - GRENOBLE, priority 2012, published 2015)
Entries after “also recorded” stand apart in the source; their conditions may differ.

Columns and labels:
Cyclon = details: K562 leukemic cells treated with Imatinib, public data GDS3043; cited from earlier work
Raji cells [1] = test: Evaluation of Rituximab sensitivity, complement dependent cytotoxicity (CDC) assay; assay type: cell-based; details: sh Cyclon vs sh Ctrl cell lines (Raji, B593, SUDHL4); 1 h, 1 μg/ml Rituximab, 20% human serum
Description: (§1) Non-targeting or CYCLON targeting short hairpin (sh) RNA sequences were designed using the DSIR algorithm (http://biodev.cea.fr/DSIR/DSIR.html). Sequences, provided in Table 1, were cloned into the pLKO-1 lentiviral vector (Addgene) and packaged as described (Levy et al., 2010) or purchased from Santa Cruz. Cells were transduced with lentiviral particles at a MOI of 10. Stable cell lines were established under puromycin selection (1 μg/ml).
(§2) Cells were treated with 1 to 10 μg/ml Rituximab (Roche) or isotype control (Herceptin, Roche) for 24 h for direct apoptosis assays and for 1 h in presence of 20% human serum as a source of complement for CDC assays. Cell viability was evaluated by AnnexinV/IP (Beckman Coulter) or IP staining and flow cytometry analysis (LSIIR, BD). Specific cell death was calculated as (% of cell death with Rituximab−% cell death with Herceptin)/(1−% cell death with Herceptin), n=8 for each cell line.

Raji cells [2] = test: Evaluation of Rituximab sensitivity, direct apoptosis assay; assay type: cell-based; details: sh Cyclon vs sh Ctrl cell lines (Raji, B593, SUDHL4); 24 h, 10 μg/ml Rituximab
Description: as §1, §2

Raji cells [3] = test: Xenotransplantation assay, Raji shCtrl / shCyclon tumours treated with Rituximab; assay type: in vivo, nude mice; details: subcutaneous, daily intraperitoneal 200 μg Rituximab
Description: 3·10^6 Raji cells were injected subcutaneously into the flank of 6 to 8 week-old nude mice as described. Four mice were injected, each of them with shCtrl and shCyclon Raji cells into the right and left flanks respectively. When tumours were palpable (˜[…]), mice were given daily intraperitoneal injections of 200 μg Rituximab. Tumour volume was measured every 2 days using the formula I^2×L×0.52 (n=4 for each group).

## Cc1ccc(NC(=O)c2ccc(CN3CCN(C)CC3)cc2)cc1Nc1nccc(-c2cccnc2)n1 [Imatinib]
Cyclon
  Cyclon expression level: down-regulation of Cyclon; also recorded: reduce Cyclon expression levels

## Rituximab
Raji cells [1]
  sensitivity of cancer cells through complement dependent cytotoxicity (CDC specific cell death): increased sensitivity
Raji cells [2]
  sensitivity of cancer cells through direct apoptosis (specific cell death): increased sensitivity
Raji cells [3]; Cyclon-depleted tumours (Raji shCyclon)
  tumour regression, day of treatment: ≤ 4 days
Raji cells [3]; control tumours (Raji shCtrl)
  tumour regression, day of treatment: 14 days
